Results reported in ChEMBL document CHEMBL5108027, “An unanticipated discovery of novel naphthalimidopropanediols as potential broad-spectrum antibacterial members” (Eur J Med Chem, 2022).
In brackets after ≈: the same amount, converted by molar mass.

Experiments:
Format in all cases: functional
[1] = tested on: Escherichia coli; test: Antibacterial activity against Escherichia coli measured by Muller-Hinton broth based microdilution assay
[2] = tested on: Staphylococcus aureus; test: Antibacterial activity against methicillin-resistant Staphylococcus aureus N315 measured by Muller-Hinton broth based microdilution assay
[3] = tested on: Escherichia coli; test: Antibacterial activity against Escherichia coli ATCC 25922 measured by Muller-Hinton broth based microdilution assay
[4] = tested on: Staphylococcus aureus; test: Antibacterial activity against Staphylococcus aureus measured by Muller-Hinton broth based microdilution assay
[5] = tested on: Staphylococcus aureus; test: Antibacterial activity against Staphylococcus aureus ATCC 25923 measured by Muller-Hinton broth based microdilution assay
[6] = tested on: Pseudomonas aeruginosa; test: Antibacterial activity against Pseudomonas aeruginosa ATCC 27853 measured by Muller-Hinton broth based microdilution assay
[7] = tested on: Staphylococcus aureus; test: Antibacterial activity against Staphylococcus aureus ATCC 29213 measured by Muller-Hinton broth based microdilution assay
[8] = tested on: Pseudomonas aeruginosa; test: Antibacterial activity against Pseudomonas aeruginosa measured by Muller-Hinton broth based microdilution assay
[9] = tested on: Klebsiella pneumoniae; test: Antibacterial activity against Klebsiella pneumoniae measured by Muller-Hinton broth based microdilution assay
[10] = tested on: Acinetobacter baumannii; test: Antibacterial activity against Acinetobacter baumannii measured by Muller-Hinton broth based microdilution assay
[11] = tested on: Enterococcus faecalis; test: Antibacterial activity against Enterococcus faecalis measured by Muller-Hinton broth based microdilution assay

| SMILES | MIC [1] | MIC [2] | MIC [3] | MIC [4] | MIC [5] | MIC [6] | MIC [7] | MIC [8] | MIC [9] | MIC [10] | MIC [11] |
| --- | --- | --- | --- | --- | --- | --- | --- | --- | --- | --- | --- |
| O=C1c2cccc(O)c2C(=O)c2c(O)cc(/C=N/Nc3ccc4c5c(cccc35)C(=O)N(C(CO)CO)C4=O)cc21 | 8 µg/mL (≈ 14.5 µM) | 64 µg/mL (≈ 116 µM) | 32 µg/mL (≈ 58 µM) | 32 µg/mL (≈ 58 µM) | 64 µg/mL (≈ 116 µM) | 64 µg/mL (≈ 116 µM) | 128 µg/mL (≈ 232 µM) | 16 µg/mL (≈ 29 µM) | 32 µg/mL (≈ 58 µM) | 64 µg/mL (≈ 116 µM) | 64 µg/mL (≈ 116 µM) |
| O=C1c2cccc3c(N/N=C/c4ccc5ccccc5n4)ccc(c23)C(=O)N1C(CO)CO | 4 µg/mL (≈ 9.08 µM) | 2 µg/mL (≈ 4.54 µM) | 64 µg/mL (≈ 145 µM) | 4 µg/mL (≈ 9.08 µM) | 64 µg/mL (≈ 145 µM) | 8 µg/mL (≈ 18.2 µM) | 128 µg/mL (≈ 291 µM) | 2 µg/mL (≈ 4.54 µM) | 32 µg/mL (≈ 72.7 µM) | 64 µg/mL (≈ 145 µM) | 64 µg/mL (≈ 145 µM) |
| N#Cc1ccc(/C=N/Nc2ccc3c4c(cccc24)C(=O)N(C(CO)CO)C3=O)cc1 | 32 µg/mL (≈ 77.2 µM) | 32 µg/mL (≈ 77.2 µM) | 16 µg/mL (≈ 38.6 µM) | 4 µg/mL (≈ 9.65 µM) | 8 µg/mL (≈ 19.3 µM) | 4 µg/mL (≈ 9.65 µM) | 2 µg/mL (≈ 4.83 µM) | 32 µg/mL (≈ 77.2 µM) | 2 µg/mL (≈ 4.83 µM) | 32 µg/mL (≈ 77.2 µM) | 8 µg/mL (≈ 19.3 µM) |
| O=C1c2cccc3c(N/N=C/c4cc(Cl)ccc4O)ccc(c23)C(=O)N1C(CO)CO | 64 µg/mL (≈ 146 µM) | 1 µg/mL (≈ 2.27 µM) | 32 µg/mL (≈ 72.8 µM) | 32 µg/mL (≈ 72.8 µM) | 2 µg/mL (≈ 4.55 µM) | 32 µg/mL (≈ 72.8 µM) | 64 µg/mL (≈ 146 µM) | 2 µg/mL (≈ 4.55 µM) | 64 µg/mL (≈ 146 µM) | 32 µg/mL (≈ 72.8 µM) | 16 µg/mL (≈ 36.4 µM) |
| CCn1cc(/C=N/Nc2ccc3c4c(cccc24)C(=O)N(C(CO)CO)C3=O)c2ccccc21 | 16 µg/mL (≈ 35 µM) | 64 µg/mL (≈ 140 µM) | 32 µg/mL (≈ 70.1 µM) | 8 µg/mL (≈ 17.5 µM) | 16 µg/mL (≈ 35 µM) | 32 µg/mL (≈ 70.1 µM) | 32 µg/mL (≈ 70.1 µM) | 16 µg/mL (≈ 35 µM) | 8 µg/mL (≈ 17.5 µM) | 64 µg/mL (≈ 140 µM) | 32 µg/mL (≈ 70.1 µM) |
| O=C1c2cccc3c(N/N=C/c4ccc([N+](=O)[O-])cc4)ccc(c23)C(=O)N1C(CO)CO | 32 µg/mL (≈ 73.7 µM) | 64 µg/mL (≈ 147 µM) | 32 µg/mL (≈ 73.7 µM) | 2 µg/mL (≈ 4.6 µM) | 2 µg/mL (≈ 4.6 µM) | 16 µg/mL (≈ 36.8 µM) | 64 µg/mL (≈ 147 µM) | 16 µg/mL (≈ 36.8 µM) | 32 µg/mL (≈ 73.7 µM) | 64 µg/mL (≈ 147 µM) | 1 µg/mL (≈ 2.3 µM) |
| O=C1c2cccc3c(N/N=C/c4ccc(O)c([N+](=O)[O-])c4)ccc(c23)C(=O)N1C(CO)CO | 32 µg/mL (≈ 71 µM) | 64 µg/mL (≈ 142 µM) | 32 µg/mL (≈ 71 µM) | 4 µg/mL (≈ 8.88 µM) | 4 µg/mL (≈ 8.88 µM) | 8 µg/mL (≈ 17.8 µM) | 8 µg/mL (≈ 17.8 µM) | 32 µg/mL (≈ 71 µM) | 4 µg/mL (≈ 8.88 µM) | 32 µg/mL (≈ 71 µM) | 16 µg/mL (≈ 35.5 µM) |
| O=C1c2cccc3c(N/N=C/c4ccccc4F)ccc(c23)C(=O)N1C(CO)CO | 32 µg/mL (≈ 78.5 µM) | 32 µg/mL (≈ 78.5 µM) | 32 µg/mL (≈ 78.5 µM) | 8 µg/mL (≈ 19.6 µM) | 64 µg/mL (≈ 157 µM) | 8 µg/mL (≈ 19.6 µM) | 16 µg/mL (≈ 39.3 µM) | 32 µg/mL (≈ 78.5 µM) | 32 µg/mL (≈ 78.5 µM) | 64 µg/mL (≈ 157 µM) | 2 µg/mL (≈ 4.91 µM) |
| C=CCn1cc(/C=N/Nc2ccc3c4c(cccc24)C(=O)N(C(CO)CO)C3=O)c2ccccc21 | 32 µg/mL (≈ 68.3 µM) | 64 µg/mL (≈ 137 µM) | 16 µg/mL (≈ 34.2 µM) | 64 µg/mL (≈ 137 µM) | 16 µg/mL (≈ 34.2 µM) | 64 µg/mL (≈ 137 µM) | 32 µg/mL (≈ 68.3 µM) | 128 µg/mL (≈ 273 µM) | 4 µg/mL (≈ 8.54 µM) | 64 µg/mL (≈ 137 µM) | 64 µg/mL (≈ 137 µM) |
| O=C1c2cccc3c(N/N=C/c4ccc(F)cc4)ccc(c23)C(=O)N1C(CO)CO | 64 µg/mL (≈ 157 µM) | 64 µg/mL (≈ 157 µM) | 64 µg/mL (≈ 157 µM) | 64 µg/mL (≈ 157 µM) | 32 µg/mL (≈ 78.5 µM) | 32 µg/mL (≈ 78.5 µM) | 4 µg/mL (≈ 9.82 µM) | 8 µg/mL (≈ 19.6 µM) | 32 µg/mL (≈ 78.5 µM) | 32 µg/mL (≈ 78.5 µM) | 64 µg/mL (≈ 157 µM) |
| O=C1c2cccc3c(N/N=C/c4nccs4)ccc(c23)C(=O)N1C(CO)CO | 32 µg/mL (≈ 80.7 µM) | 32 µg/mL (≈ 80.7 µM) | 32 µg/mL (≈ 80.7 µM) | 64 µg/mL (≈ 161 µM) | 16 µg/mL (≈ 40.4 µM) | 16 µg/mL (≈ 40.4 µM) | 32 µg/mL (≈ 80.7 µM) | 32 µg/mL (≈ 80.7 µM) | 64 µg/mL (≈ 161 µM) | 32 µg/mL (≈ 80.7 µM) | 32 µg/mL (≈ 80.7 µM) |
| O=C1c2cccc3c(N/N=C/c4nc5ccccc5[nH]4)ccc(c23)C(=O)N1C(CO)CO | 8 µg/mL (≈ 18.6 µM) | 64 µg/mL (≈ 149 µM) | 32 µg/mL (≈ 74.5 µM) | 32 µg/mL (≈ 74.5 µM) | 64 µg/mL (≈ 149 µM) | 64 µg/mL (≈ 149 µM) | 128 µg/mL (≈ 298 µM) | 16 µg/mL (≈ 37.3 µM) | 32 µg/mL (≈ 74.5 µM) | 64 µg/mL (≈ 149 µM) | 64 µg/mL (≈ 149 µM) |
| CCCCc1nc(Cl)c(/C=N/Nc2ccc3c4c(cccc24)C(=O)N(C(CO)CO)C3=O)[nH]1 | 16 µg/mL (≈ 34 µM) | 64 µg/mL (≈ 136 µM) | 32 µg/mL (≈ 68.1 µM) | 32 µg/mL (≈ 68.1 µM) | 64 µg/mL (≈ 136 µM) | 8 µg/mL (≈ 17 µM) | 32 µg/mL (≈ 68.1 µM) | 64 µg/mL (≈ 136 µM) | 8 µg/mL (≈ 17 µM) | 64 µg/mL (≈ 136 µM) | 32 µg/mL (≈ 68.1 µM) |
| CCCCCCCCCCCCn1cc(/C=N/Nc2ccc3c4c(cccc24)C(=O)N(C(CO)CO)C3=O)c2ccccc21 | 32 µg/mL (≈ 53.6 µM) | 64 µg/mL (≈ 107 µM) | 64 µg/mL (≈ 107 µM) | 8 µg/mL (≈ 13.4 µM) | 32 µg/mL (≈ 53.6 µM) | 32 µg/mL (≈ 53.6 µM) | 64 µg/mL (≈ 107 µM) | 128 µg/mL (≈ 214 µM) | 64 µg/mL (≈ 107 µM) | 64 µg/mL (≈ 107 µM) | 64 µg/mL (≈ 107 µM) |
| COc1cc(/C=N/Nc2ccc3c4c(cccc24)C(=O)N(C(CO)CO)C3=O)ccc1O | 64 µg/mL (≈ 147 µM) | 64 µg/mL (≈ 147 µM) | 16 µg/mL (≈ 36.7 µM) | 16 µg/mL (≈ 36.7 µM) | 64 µg/mL (≈ 147 µM) | 8 µg/mL (≈ 18.4 µM) | 16 µg/mL (≈ 36.7 µM) | 64 µg/mL (≈ 147 µM) | 4 µg/mL (≈ 9.19 µM) | 64 µg/mL (≈ 147 µM) | 8 µg/mL (≈ 18.4 µM) |
| O=C1c2cccc3c(N/N=C/c4ccccc4Cl)ccc(c23)C(=O)N1C(CO)CO | 128 µg/mL (≈ 302 µM) | 64 µg/mL (≈ 151 µM) | 64 µg/mL (≈ 151 µM) | 64 µg/mL (≈ 151 µM) | 32 µg/mL (≈ 75.5 µM) | 32 µg/mL (≈ 75.5 µM) | 8 µg/mL (≈ 18.9 µM) | 16 µg/mL (≈ 37.7 µM) | 16 µg/mL (≈ 37.7 µM) | 64 µg/mL (≈ 151 µM) | 64 µg/mL (≈ 151 µM) |
| O=C1c2cccc3c(N/N=C/c4csc5ccccc45)ccc(c23)C(=O)N1C(CO)CO | 32 µg/mL (≈ 71.8 µM) | 64 µg/mL (≈ 144 µM) | 64 µg/mL (≈ 144 µM) | 64 µg/mL (≈ 144 µM) | 64 µg/mL (≈ 144 µM) | 64 µg/mL (≈ 144 µM) | 128 µg/mL (≈ 287 µM) | 64 µg/mL (≈ 144 µM) | 32 µg/mL (≈ 71.8 µM) | 64 µg/mL (≈ 144 µM) | 64 µg/mL (≈ 144 µM) |
| O=C1c2cccc3c(N/N=C/c4ccco4)ccc(c23)C(=O)N1C(CO)CO | 32 µg/mL (≈ 84.3 µM) | 32 µg/mL (≈ 84.3 µM) | 64 µg/mL (≈ 169 µM) | 32 µg/mL (≈ 84.3 µM) | 32 µg/mL (≈ 84.3 µM) | 16 µg/mL (≈ 42.2 µM) | 32 µg/mL (≈ 84.3 µM) | 32 µg/mL (≈ 84.3 µM) | 64 µg/mL (≈ 169 µM) | 32 µg/mL (≈ 84.3 µM) | 32 µg/mL (≈ 84.3 µM) |
| O=C1c2cccc3c(N/N=C/c4ccc(OC(F)(F)F)cc4)ccc(c23)C(=O)N1C(CO)CO | 32 µg/mL (≈ 67.6 µM) | 32 µg/mL (≈ 67.6 µM) | 32 µg/mL (≈ 67.6 µM) | 4 µg/mL (≈ 8.45 µM) | 32 µg/mL (≈ 67.6 µM) | 8 µg/mL (≈ 16.9 µM) | 4 µg/mL (≈ 8.45 µM) | 8 µg/mL (≈ 16.9 µM) | 2 µg/mL (≈ 4.22 µM) | 16 µg/mL (≈ 33.8 µM) | 2 µg/mL (≈ 4.22 µM) |
| O=C1c2cccc3c(N/N=C/c4cccc(O)c4)ccc(c23)C(=O)N1C(CO)CO | 256 µg/mL (≈ 631 µM) | 128 µg/mL (≈ 316 µM) | 256 µg/mL (≈ 631 µM) | 256 µg/mL (≈ 631 µM) | 32 µg/mL (≈ 78.9 µM) | 256 µg/mL (≈ 631 µM) | 256 µg/mL (≈ 631 µM) | 256 µg/mL (≈ 631 µM) | 128 µg/mL (≈ 316 µM) | 256 µg/mL (≈ 631 µM) | 128 µg/mL (≈ 316 µM) |
